Laboratory results from PubChem BioAssay AID463203 (Broad Institute, 2010).
Activity calls are given as the source filed them.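 Rule for the calls: active = more than half of replicate measurements showing over 20% loss of kinase signal relative to plate controls; inconclusive = some but at most half of replicates over 20% loss; inactive = no replicate over 20% signal loss.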

Molecular target: Glycogen synthase kinase-3 alpha (Homo sapiens) (UniProt P49840)
Assay: concentration-response blocking of human GSK3A – biochemical, luminescence, cell-free homogeneous, retest, dose response (AID 463203)
Details: GSK-3 alpha enzyme, ADP-Glo luminescence, 60 min

Glycogen synthase kinase-3 alpha (Homo sapiens), sequence (P49840 whole entry, looked up): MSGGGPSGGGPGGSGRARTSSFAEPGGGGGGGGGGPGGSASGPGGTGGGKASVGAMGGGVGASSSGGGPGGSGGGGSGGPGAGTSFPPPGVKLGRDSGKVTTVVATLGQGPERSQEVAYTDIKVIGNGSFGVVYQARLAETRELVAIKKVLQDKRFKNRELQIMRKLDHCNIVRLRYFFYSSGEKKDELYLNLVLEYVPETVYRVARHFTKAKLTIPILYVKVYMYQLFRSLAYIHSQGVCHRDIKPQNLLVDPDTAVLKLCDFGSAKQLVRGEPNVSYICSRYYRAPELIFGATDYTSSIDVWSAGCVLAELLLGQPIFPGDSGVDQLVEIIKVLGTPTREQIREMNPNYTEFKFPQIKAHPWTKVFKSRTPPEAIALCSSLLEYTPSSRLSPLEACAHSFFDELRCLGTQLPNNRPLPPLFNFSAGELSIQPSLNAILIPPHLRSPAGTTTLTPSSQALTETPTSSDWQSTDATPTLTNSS

| Compound | AC50 |
| --- | --- |
| Cc1ccc(N=C2NC(=O)/C(=C\c3ccco3)S2)cc1 | > 30 µM (inactive) |
| COc1cc(C2c3sc(=O)[nH]c3SC3C(=O)N(c4ccc(C)cc4)C(=O)C32)ccc1O (stereo not given) | > 30 µM (inactive) |
| Fc1ccc(/C=N/Nc2nccnc2Cl)cc1 | > 30 µM (inactive) |
| Cc1csc(NC(=O)C2CCCN2C(=O)OCC(C)C)n1 (stereo not given) | > 30 µM (inactive) |
| COc1cccc(-c2[nH]nc3c2C(c2ccc(C)o2)C(C#N)=C(N)O3)c1 (stereo not given) | > 30 µM (inactive) |
| Nc1cc(C(F)(F)F)ccc1C(=O)O | > 30 µM (inactive) |
| COc1ccc(-c2nc(N)ncc2-c2ccc(OC)c(OC)c2)c(O)c1 | 29.2 µM |
| O=c1[nH]c2c(s1)C(c1cccnc1)C1C3CCC(C3)C1S2 (stereo not given) | 8.66 µM |
| COc1ccc(COC(=O)C2=C(C)NC(=O)NC2c2ccc(F)cc2)cc1 (stereo not given) | > 30 µM (inactive) |
| Nc1ccc2nc(C3CCCCC3)[nH]c2c1 | > 30 µM (inactive) |
| CC1(C)Cc2nc3oc4c(=S)nc[nH]c4c3cc2CO1 | 17 µM |
| C/C(=C/c1oc2ccc(O)cc2c1[N+](=O)[O-])N(C)C | > 30 µM (inactive) |
| O=C(CSc1nnc(SCC(=O)c2ccco2)s1)c1ccco1 | > 30 µM (inactive) |
| C[C@H](CO)N1C[C@H](C)[C@@H](CN(C)S(=O)(=O)c2ccc(F)cc2)Oc2c(NC(=O)Nc3ccccc3)cccc2C1=O | > 30 µM (inactive) |
| CC1CCC2(CC1)NC(=O)N(CC(=O)Nc1ccc(C(N)=O)cc1)C2=O (stereo not given) | > 30 µM (inactive) |
| O=c1[nH]c(=S)n(CCC2=CCCCC2)c(O)c1C=NCCCn1ccnc1 | 14.3 µM |
| CC1(C)CC(=O)C=C(c2cccc(O)c2)C1 | > 30 µM (inactive) |
| CCOc1ccc(-c2nnc(N)o2)cc1 | > 30 µM (inactive) |
| COCCCNc1nc2nonc2nc1NCCSC | > 30 µM (inactive) |
| Cc1cccc(C)c1OCC(=O)N=Nc1c(O)[nH]c2ccc(Br)cc12 | > 30 µM (inactive) |
| Cc1ccnc(NC(=O)CCC(=O)N(CC(=O)NCc2ccccc2)Cc2ccccc2)c1 | 15.1 µM |
| O=c1cc(-c2ccc(O)cc2)oc2c1ccc1ccccc12 | 1.33 µM |
| CC1CCCC(C)N1C(=O)COC(=O)c1c[nH]c2ccccc12 (stereo not given) | > 30 µM (inactive) |
| CCOc1ccc(N2C(=O)C3C(c4ccccc4F)NN(C(=O)c4ccc(C)cc4)C3C2=O)cc1 (stereo not given) | > 30 µM (inactive) |
| Cc1cc(NC(=O)c2sc(Nc3ccc(F)cc3)nc2N)no1 | 8.04 µM |
| COC(=O)CNc1nc(Cl)nc(NC2CCCCC2)n1 | > 30 µM (inactive) |
| CN(C)CCCNc1ccc(S(N)(=O)=O)cc1[N+](=O)[O-] | > 30 µM (inactive) |

| Compound | AC50 |
| --- | --- |
| COc1ccc(/C=C/c2nc3ccccc3n2C)cc1 | 11.4 µM |
| CCOC(=O)c1cccc(NC(=O)C2CCCN2S(=O)(=O)c2cccc3cccnc23)c1 (stereo not given) | 29.5 µM |
| FC(F)(F)c1nnc2n1N=C(c1cccs1)CS2 | > 30 µM (inactive) |
| CCCC(NS(=O)(=O)c1ccc(OC)cc1)C(=O)O (stereo not given) | > 30 µM (inactive) |
| O=C(Nc1ccc(C(=O)NC2CCCCC2)cc1)c1cccnc1 | > 30 µM (inactive) |
| CCn1c(=O)[nH]c(=O)c2c(N)c(C(=O)c3cc(F)ccc3F)sc21 | 10.4 µM |
| CCOC1(OCC)N=C(N)C2(C#N)C(c3cccc(C)c3)C12C#N (stereo not given) | > 30 µM (inactive) |
| CN(Cc1c(C(=O)N/N=C/c2cccc(O)c2)nnn1-c1nonc1N)c1ccccc1 | 2.8 µM |
| CCCCCCCCOC(=O)C1=C(C)Nc2nnnn2C1c1cccs1 (stereo not given) | > 30 µM (inactive) |
| CCC(=NCCCO)c1c(O)n(-c2ccc(OC)cc2)c(=O)[nH]c1=O | > 30 µM (inactive) |
| Cn1c(SCC(=O)N/N=C/C=C\c2ccco2)nc2ccccc21 | > 30 µM (inactive) |
| Nn1c(SCc2ccccc2F)nnc1-c1ccncc1 | > 30 µM (inactive) |
| NC(=O)Cn1cc(/C=N\NS(=O)(=O)c2cccc([N+](=O)[O-])c2)c2ccccc21 | > 30 µM (inactive) |
| CCC(=O)N1CCN(c2cc(NCC3CCCO3)c(F)cc2[N+](=O)[O-])CC1 (stereo not given) | 21.7 µM |
| Cc1ccc(S(=O)(=O)N(CC(O)CN2CCCC2)c2ccccc2)cc1 (stereo not given) | > 30 µM (inactive) |
| COc1cc(/C=N/NC(=O)c2ccc(COc3ccccc3Cl)o2)cc(Br)c1O | > 30 µM (inactive) |
| COCc1cc(C)nc(OCC(=O)N/N=C/c2ccc(O)cc2)c1C#N | 13.3 µM |
| COc1ccc(COC(=O)C2=C(C)NC(=O)NC2c2ccccc2F)cc1 (stereo not given) | > 30 µM (inactive) |
| NC(=O)c1ccsc1NC(=O)C1CCCCC1 | > 30 µM (inactive) |
| CC1CCN(Cc2c(O)ccc3c2O/C(=C\c2ccco2)C3=O)CC1 | 4.41 µM |
| CN(C)c1ccc(/C=N/NC(=O)c2nnn(-c3nonc3N)c2CN(C)c2ccccc2)cc1 | > 30 µM (inactive) |
| CC(C)CN(C(=O)CN1CC=C(c2ccccc2)CC1)c1c(N)n(CC(C)C)c(=O)[nH]c1=O | > 30 µM (inactive) |
| NS(=O)(=O)c1ccc(Nc2nc(-c3ccc(F)cc3)cs2)cc1 | 26.2 µM |
| O=C(Nc1ncc([N+](=O)[O-])s1)c1ccc2c(c1)OCO2 | > 30 µM (inactive) |
| Oc1[nH]c2ccc(Br)cc2c1N=Nc1nn[nH]n1 | 23.3 µM |
| O=c1ccc2ccccc2o1 | > 30 µM (inactive) |
| COc1cccc(/C=N/NC(=O)COc2cccc3cccnc23)c1O | > 30 µM (inactive) |

| Compound | AC50 |
| --- | --- |
| COc1ccc(-n2c(SCC(N)=O)nnc2-c2ccco2)cc1 | > 30 µM (inactive) |
| COc1ccccc1NC(=O)Nc1ccccc1Br | > 30 µM (inactive) |
| CN1/C(=C\C=[N+](C)c2ccccc2)C(C)(C)c2ccccc21 | > 30 µM (inactive) |
| COc1ccc2cc(C(N)=O)c(=Nc3ccc(C)cc3)oc2c1 | > 30 µM (inactive) |
| CCSC1(SCC)N=C(N)C2(C#N)C(c3ccc(F)cc3)C12C#N (stereo not given) | > 30 µM (inactive) |
| COCc1nnc(NC(=O)CCCCCN2C(=O)c3ccccc3C2=O)s1 | > 30 µM (inactive) |
| O=c1[nH]c2c(s1)C(c1ccco1)C1C3CCC(C3)C1S2 (stereo not given) | 15.3 µM |
| CCn1c2ccc(Cl)cc2c2nc3ccccc3nc21 | > 30 µM (inactive) |
| CCN(CC)C(=O)c1ccc(NC(=O)Nc2ccccc2F)cc1 | 26.5 µM |
| COc1cccc(NC(=O)Nc2cc(Cl)ccc2C)c1 | > 30 µM (inactive) |
| Fc1ccc(Nc2nc(-c3ccncc3)nc3ccccc23)cc1F | > 30 µM (inactive) |
| Fc1ccc(/C=N/Nc2cc(N3CCOCC3)ncn2)cc1 | > 30 µM (inactive) |
| CN(C)c1ccc(Nc2nc(N)c3ccccc3n2)cc1 | 18.2 µM |
| Cc1c(C(=O)OC2CCCCC2)[nH]c2c1C(=O)CC(C)(C)C2 | > 30 µM (inactive) |
| O=C(CSc1cccs1)Nc1ccc(Cl)cc1 | > 30 µM (inactive) |
| COC(=O)c1nnn(-c2ccccc2)c1N | > 30 µM (inactive) |
| CCSc1nnc2ccc(-c3cccs3)nn12 | > 30 µM (inactive) |
| COc1cccc(/C=N/n2cncn2)c1OCC#N | > 30 µM (inactive) |
| Nc1ccc2c(c1)C(=O)c1ccccc1C2=O | > 30 µM (inactive) |
| C[C@@H](NC(=O)c1[nH]cnc1C(=O)Nc1ccon1)c1ccccc1 | 11.6 µM |
| Brc1ccc(-c2nnc3ccc(Nc4ccccc4)nn23)cc1 | > 30 µM (inactive) |
| N#CC1=C(SCc2ccccc2)NC(=O)CC1c1ccco1 (stereo not given) | > 30 µM (inactive) |
| CC(=O)C(Sc1ccc2nnc(-c3ccc(C)cc3)n2n1)C(C)=O | > 30 µM (inactive) |
| Cc1cccc2c(N=Nc3ccccc3)c(O)[nH]c12 | > 30 µM (inactive) |
| CC[n+]1c(/C=C/C=C/N(C(C)=O)c2ccccc2)sc2ccccc21 | > 30 µM (inactive) |
| O=C(NC1CCCC1)c1cccc(NC(=O)c2ccco2)c1 | > 30 µM (inactive) |
| O=C1c2cnc3nc(SCc4ccc(Cl)cc4)nn3c2CC2c3ccccc3CCN12 (stereo not given) | > 30 µM (inactive) |

| Compound | AC50 |
| --- | --- |
| O=C(COC(=O)CCc1ccc(S(=O)(=O)N2CCOCC2)cc1)Nc1ccc(Cl)cn1 | 28.4 µM |
| COc1ccccc1NC(=O)c1cc(Cl)ccc1NC(=O)c1ccco1 | > 30 µM (inactive) |
| CC(=O)Oc1ccc(C(=O)c2ccccc2)c(OC(C)=O)c1 | > 30 µM (inactive) |
| COc1ccc(CC(=O)N2CCOCC2)cc1 | > 30 µM (inactive) |
| COc1ccc(Nc2nc(-c3cc4cccc(OC)c4oc3=O)cs2)cc1 | > 30 µM (inactive) |
| Cc1cc2oc(C(=O)NCCc3ccc(S(N)(=O)=O)cc3)c(C)c2cc1C | > 30 µM (inactive) |
| COc1ccc(CCNC(=O)CSc2nc3[nH]ncc3c(=O)n2-c2cccc(C(F)(F)F)c2)cc1OC | > 30 µM (inactive) |
| CCc1nnc(NC(=O)CCc2nc(C3=CCN(C)CC3)no2)s1 | > 30 µM (inactive) |
| COc1ccc(-c2noc(CSc3nc(-c4ccccc4)cc(=O)[nH]3)n2)cc1OC | > 30 µM (inactive) |
| CNC(=O)CSc1nnc(-c2ccco2)n1-c1cccc(OC)c1 | > 30 µM (inactive) |
| CC(C)(C)OC(=O)N1CCC(NC(=O)c2[nH]cnc2C(=O)Nc2ccc(Cl)cc2)CC1 | > 30 µM (inactive) |
| Cc1[nH]nc(NCCO)c1[N+](=O)[O-] | > 30 µM (inactive) |
| Cc1cccc(C)c1OCC(O)CNC(C)C (stereo not given) | > 30 µM (inactive) |
| COc1cccc(Nc2ncnc3nc[nH]c23)c1 | 19.7 µM |
| N#Cc1ccccc1Cn1cc(/C=N/Nc2ccc([N+](=O)[O-])cn2)c2ccccc21 | > 30 µM (inactive) |
| Cn1c(=O)c2c(nc(NCC3CCCO3)n2Cc2ccccc2)n(C)c1=O (stereo not given) | > 30 µM (inactive) |
| CCN1CCN(c2nc(N)c([N+](=O)[O-])c(Nc3ccc(C)cc3)n2)CC1 | > 30 µM (inactive) |
| COc1cc(/C=N/NC(=O)c2cnccn2)ccc1O | > 30 µM (inactive) |
| O=C(Nc1ccc(Cl)cn1)c1cccc(S(=O)(=O)N2CCOCC2)c1 | > 30 µM (inactive) |
| Cc1ccc(N=CC2=C(O)CC(C)(C)CC2=O)nc1 | > 30 µM (inactive) |
| COc1ccc(NC(=O)c2ccc(NCCCN3CCOCC3)c([N+](=O)[O-])c2)cc1 | > 30 µM (inactive) |
| O=C(Cn1ncc2c(=O)oc3ccccc3c21)N1CCc2ccccc2C1 | > 30 µM (inactive) |
| CC(=C/c1ccccc1)/C=N/NC(=O)c1nnn(-c2nonc2N)c1CN1CCC(C)CC1 | > 30 µM (inactive) |
| CC1=C(C(=O)OCc2ccccc2)C(c2cccc(Br)c2)NC(=O)N1 (stereo not given) | 28.7 µM |
